Our source for the IC50 and tumor growth suppression values is patent US20250152723A1, “ANTIBODY-DRUG CONJUGATES INVOLVING ERIANIN AND THE FABRICATION METHODS AND APPLICATIONS THEREOF” (Laboratory for Synthetic Chemistry and Chemical Biology …, priority 2023, published 2025).

Assay [1] concerns SK-OV-3 ovarian cancer cell (HER2+). Nature of the assay: In vitro anti-proliferative study (NBB staining, 6 days). It is filed as cell-based, human. The settings on record: SK-OV-3 (HER2+), 6 days incubation, mean±SD. Here is the method:
(§1) Briefly, Different cell lines (1×10^3 cells/well) are seeded in a microtiter plate (96 well) and incubated overnight before the treatment. […] After the media is removed, the cells are fixed with formaldehyde (3%; 50 μL) in PBS and stained with NBB reagent (0.05%, 0.1 M sodium acetate, 9% acetic acid; 50 μL) for overnight. The stained cells in each well are washed thrice gently with deionized water and solubilized in sodium hydroxide solution (50 mM; 100 μL). The cell viability is determined by measuring the absorbance of 620 nm in each well by microplate reader. The experiments are repeated in triplicate. The IC50 values are presented as the mean±standard deviation.

Assay [2] concerns MDA-MB-231 breast cancer cell (HER2−). The assay is described as above. It is filed as cell-based. The settings on record: MDA-MB-231 (HER2−), 6 days incubation, mean±SD. Here is the method:
as §1

Assay [3] deals with MCF-10A breast epithelial cell (HER2−). The assay is described as above. It is filed as cell-based. The settings on record: MCF-10A (HER2−), 6 days incubation, mean±SD. Here is the method: as §1
For assay [4], the system named is SK-BR-3 breast cancer cell (HER2+). The assay is described as above. It is filed as cell-based. The settings on record: SK-BR-3 (HER2+), 6 days incubation, mean±SD. Here is the method: as §1
For assay [5], the system named is HER2-positive SK-OV-3 human ovarian cancer xenograft. Nature of the assay: Antitumor activity in SK-OV-3 xenograft model. Conditions: 50 mg/kg intravenous, four doses (day 0, 4, 8, 12), compared to vehicle control. It is filed as in vivo, Female BALB/cAnN-nu (nude) mice.
Experimental: Female BALB/cAnN-nu (nude) mice (5-8 weeks old) are housed in the Laboratory Animal Unit, The University of Hong Kong. The mice are freely access to food and water. SKOV-3 ovarian cancer cells (1×10^7) in PBS (100 μL) are injected into the right flanks of each mouse subcutaneously. […] The mice are treated with intravenous administration of a total of four doses on day 0, 4, 8 and 12. The tumor size and body weight are monitored during the treatment. After 28 days, the mice are sacrificed and the tumor weight is measured.

What is called IC50 is the midpoint of a concentration-inhibition curve. Read a low IC50 as inhibition by little substance.

SMILES strings stand for the structures.

Regarding `COc1ccc(CCc2cc(OC)c(OC)c(OC)c2)cc1O` [Erianin, erianin], the IC50 is 21.4 ± 0.3 nM in assay [1], 21.6 ± 0.2 nM in assay [2], 25.7 ± 0.2 nM in assay [3] and 24.1 ± 0.1 nM in assay [4]. Further, the tumor growth suppression result in assay [5] is listed as “no effect”.
